From PubChem BioAssay (NCI)
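Each compound was tested at five concentrations against cells in 96-well plates for 48 hours. GI50 marks 50% less growth. TGI denotes the concentration required for complete inhibition of growth.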

Tests used:
Assay in all cases: NCI anticancer screen, dose series, 48 h
786-0 renal = test system: 786-0 renal
A498 renal = test system: A498 renal
A549 NSCLC = test system: A549 NSCLC
ACHN renal = test system: ACHN renal
BT-549 breast = test system: BT-549 breast
CAKI-1 renal = test system: CAKI-1 renal
CCRF-CEM leukemia = test system: CCRF-CEM leukemia
COLO 205 colon = test system: COLO 205 colon
DU-145 prostate = test system: DU-145 prostate
EKVX NSCLC = test system: EKVX NSCLC
HCC-2998 colon = test system: HCC-2998 colon
HCT-116 colon = test system: HCT-116 colon
HCT-15 colon = test system: HCT-15 colon
HL-60(TB) leukemia = test system: HL-60(TB) leukemia
HOP-62 NSCLC = test system: HOP-62 NSCLC
HOP-92 NSCLC = test system: HOP-92 NSCLC
HS 578T breast = test system: HS 578T breast
HT29 colon = test system: HT29 colon
IGROV1 ovarian = test system: IGROV1 ovarian
K-562 leukemia = test system: K-562 leukemia
KM12 colon = test system: KM12 colon
LOX IMVI melanoma = test system: LOX IMVI melanoma
M14 melanoma = test system: M14 melanoma
MALME-3M melanoma = test system: MALME-3M melanoma
MCF7 breast = test system: MCF7 breast
MDA-MB-231 breast = test system: MDA-MB-231 breast
MDA-MB-435 = test system: MDA-MB-435
MOLT-4 leukemia = test system: MOLT-4 leukemia
NCI-H226 lung = test system: NCI-H226 lung
NCI-H23 lung = test system: NCI-H23 lung
NCI-H460 lung = test system: NCI-H460 lung
NCI-H522 lung = test system: NCI-H522 lung
NCI/ADR-RES ovarian = test system: NCI/ADR-RES ovarian
OVCAR-3 ovarian = test system: OVCAR-3 ovarian
OVCAR-4 ovarian = test system: OVCAR-4 ovarian
OVCAR-5 ovarian = test system: OVCAR-5 ovarian
OVCAR-8 ovarian = test system: OVCAR-8 ovarian
PC-3 prostate = test system: PC-3 prostate
RPMI-8226 leukemia = test system: RPMI-8226 leukemia
RXF 393 renal = test system: RXF 393 renal
SF-268 CNS = test system: SF-268 CNS
SF-295 CNS = test system: SF-295 CNS
SF-539 CNS = test system: SF-539 CNS
SK-MEL-2 melanoma = test system: SK-MEL-2 melanoma
SK-MEL-28 melanoma = test system: SK-MEL-28 melanoma
SK-MEL-5 melanoma = test system: SK-MEL-5 melanoma
SK-OV-3 ovarian = test system: SK-OV-3 ovarian
SN12C renal = test system: SN12C renal
SNB-19 CNS = test system: SNB-19 CNS
SNB-75 CNS = test system: SNB-75 CNS
SW-620 colon = test system: SW-620 colon
T-47D breast = test system: T-47D breast
TK-10 renal = test system: TK-10 renal
U251 CNS = test system: U251 CNS
UACC-257 melanoma = test system: UACC-257 melanoma
UACC-62 melanoma = test system: UACC-62 melanoma
UO-31 renal = test system: UO-31 renal

## C[n+]1c(-c2ccccc2)c2cc(N)ccc2c2ccccc21
786-0 renal
  GI50: 7.87 µM
  TGI: > 100 µM
A498 renal
  GI50: 19.6 µM
  TGI: > 79.5 µM
A549 NSCLC
  GI50: 5.1 µM
  TGI: > 47.7 µM
ACHN renal
  GI50: > 63.7 µM
  TGI: > 100 µM
BT-549 breast
  GI50: 2440 nM
  TGI: 16.7 µM
CAKI-1 renal
  GI50: > 59.8 µM
  TGI: > 100 µM
CCRF-CEM leukemia
  GI50: 3.4 µM
  TGI: 29.5 µM
COLO 205 colon
  GI50: 1970 nM
  TGI: 6 µM
DU-145 prostate
  GI50: 4.12 µM
  TGI: 57.3 µM
EKVX NSCLC
  GI50: 7.97 µM
  TGI: > 100 µM
HCC-2998 colon
  GI50: 2000 nM
  TGI: 7.97 µM
HCT-116 colon
  GI50: 2750 nM
  TGI: 44.6 µM
HCT-15 colon
  GI50: > 100 µM
  TGI: > 100 µM
HL-60(TB) leukemia
  GI50: 6.01 µM
  TGI: 25.1 µM
HOP-62 NSCLC
  GI50: 7.13 µM
  TGI: 38.2 µM
HOP-92 NSCLC
  GI50: 2570 nM
  TGI: 20 µM
HS 578T breast
  GI50: 2760 nM
  TGI: 12.3 µM
HT29 colon
  GI50: 3.45 µM
  TGI: 22.3 µM
IGROV1 ovarian
  GI50: 5.78 µM
  TGI: > 44.2 µM
K-562 leukemia
  GI50: 2510 nM
  TGI: 28.4 µM
KM12 colon
  GI50: 2870 nM
  TGI: 14.8 µM
LOX IMVI melanoma
  GI50: 4.16 µM
  TGI: > 70.7 µM
M14 melanoma
  GI50: 8.94 µM
  TGI: 32.7 µM
MALME-3M melanoma
  GI50: 1980 nM
  TGI: 6.63 µM
MCF7 breast
  GI50: 2430 nM
  TGI: 17.9 µM
MDA-MB-231 breast
  GI50: 13.3 µM
  TGI: 60 µM
MDA-MB-435
  GI50: 3.22 µM
  TGI: 14.2 µM
MOLT-4 leukemia
  GI50: 1990 nM
  TGI: 20.5 µM
NCI-H226 lung
  GI50: 8.7 µM
  TGI: > 58.5 µM
NCI-H23 lung
  GI50: 2280 nM
  TGI: 12.2 µM
NCI-H460 lung
  GI50: 3.2 µM
  TGI: 26.4 µM
NCI-H522 lung
  GI50: 3.91 µM
  TGI: > 100 µM
NCI/ADR-RES ovarian
  GI50: > 100 µM
  TGI: > 100 µM
OVCAR-3 ovarian
  GI50: 3.48 µM
  TGI: 22.2 µM
OVCAR-4 ovarian
  GI50: 2840 nM
  TGI: 16 µM
OVCAR-5 ovarian
  GI50: 25.4 µM
  TGI: > 100 µM
OVCAR-8 ovarian
  GI50: 12.4 µM
  TGI: > 100 µM
PC-3 prostate
  GI50: 4.45 µM
  TGI: 31.8 µM
RPMI-8226 leukemia
  GI50: 1640 nM
  TGI: 9.75 µM
RXF 393 renal
  GI50: 26.3 µM
  TGI: > 100 µM
SF-268 CNS
  GI50: 534 nM
  TGI: 7.07 µM
SF-295 CNS
  GI50: 5.68 µM
  TGI: > 78.1 µM
SF-539 CNS
  GI50: 3.49 µM
  TGI: 15.5 µM
SK-MEL-2 melanoma
  GI50: 6.08 µM
  TGI: 32.9 µM
SK-MEL-28 melanoma
  GI50: 2190 nM
  TGI: 4.95 µM
SK-MEL-5 melanoma
  GI50: 2110 nM
  TGI: 6.5 µM
SK-OV-3 ovarian
  GI50: 11.7 µM
  TGI: > 91.9 µM
SN12C renal
  GI50: 2130 nM
  TGI: 20.2 µM
SNB-19 CNS
  GI50: 2090 nM
  TGI: 20.6 µM
SNB-75 CNS
  GI50: 1280 nM
  TGI: 3.07 µM
SW-620 colon
  GI50: 3.38 µM
  TGI: 50.5 µM
T-47D breast
  GI50: 2420 nM
  TGI: 14.9 µM
TK-10 renal
  GI50: 8.69 µM
  TGI: > 59.5 µM
U251 CNS
  GI50: 1390 nM
  TGI: > 44.3 µM
UACC-257 melanoma
  GI50: 4.73 µM
  TGI: > 100 µM
UACC-62 melanoma
  GI50: 2000 nM
  TGI: 5.03 µM
UO-31 renal
  GI50: > 83.8 µM
  TGI: > 100 µM
